According to PubChem BioAssay (NCI):
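GI50: concentration for 50% inhibition of growth. TGI: total growth inhibition.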

What was measured:
Experiment in all cases: NCI tumour cell line growth inhibition, 384-well format
SK-MEL-2 melanoma = test system: SK-MEL-2 melanoma
HL-60(TB) leukemia = test system: HL-60(TB) leukemia
COLO 205 colon = test system: COLO 205 colon
OVCAR-8 ovarian = test system: OVCAR-8 ovarian
HCT-15 colon = test system: HCT-15 colon
SNB-75 CNS = test system: SNB-75 CNS
UO-31 renal = test system: UO-31 renal
LOX IMVI melanoma = test system: LOX IMVI melanoma
SK-MEL-28 melanoma = test system: SK-MEL-28 melanoma
RPMI-8226 leukemia = test system: RPMI-8226 leukemia
HS 578T breast = test system: HS 578T breast
UACC-62 melanoma = test system: UACC-62 melanoma
T-47D breast = test system: T-47D breast
NCI-H322M lung = test system: NCI-H322M lung
CCRF-CEM leukemia = test system: CCRF-CEM leukemia
MDA-MB-435 melanoma = test system: MDA-MB-435 melanoma
OVCAR-3 ovarian = test system: OVCAR-3 ovarian
MOLT-4 leukemia = test system: MOLT-4 leukemia
NCI-H23 lung = test system: NCI-H23 lung
SK-OV-3 ovarian = test system: SK-OV-3 ovarian
OVCAR-4 ovarian = test system: OVCAR-4 ovarian
NCI-H226 lung = test system: NCI-H226 lung
SF-268 CNS = test system: SF-268 CNS
K-562 leukemia = test system: K-562 leukemia
HOP-62 NSCLC = test system: HOP-62 NSCLC
NCI-H522 lung = test system: NCI-H522 lung
EKVX NSCLC = test system: EKVX NSCLC
MALME-3M melanoma = test system: MALME-3M melanoma
OVCAR-5 ovarian = test system: OVCAR-5 ovarian
HCT-116 colon = test system: HCT-116 colon
SW-620 colon = test system: SW-620 colon
TK-10 renal = test system: TK-10 renal
SF-295 CNS = test system: SF-295 CNS
SNB-19 CNS = test system: SNB-19 CNS
BT-549 breast = test system: BT-549 breast
A498 renal = test system: A498 renal
MCF7 breast = test system: MCF7 breast
U251 glioblastoma = test system: U251 glioblastoma
A549 NSCLC = test system: A549 NSCLC
HT29 colon = test system: HT29 colon
786-0 renal = test system: 786-0 renal
MDA-MB-468 breast = test system: MDA-MB-468 breast
IGROV1 ovarian = test system: IGROV1 ovarian
SN12C renal = test system: SN12C renal
NCI/ADR-RES ovarian = test system: NCI/ADR-RES ovarian
RXF 393 renal = test system: RXF 393 renal
NCI-H460 NSCLC = test system: NCI-H460 NSCLC
DU-145 prostate = test system: DU-145 prostate
SF-539 CNS = test system: SF-539 CNS
M14 melanoma = test system: M14 melanoma
UACC-257 melanoma = test system: UACC-257 melanoma
CAKI-1 renal = test system: CAKI-1 renal
KM12 colon = test system: KM12 colon
MDA-MB-231 breast = test system: MDA-MB-231 breast
HCC-2998 colon = test system: HCC-2998 colon
HOP-92 NSCLC = test system: HOP-92 NSCLC
PC-3 prostate = test system: PC-3 prostate
SK-MEL-5 melanoma = test system: SK-MEL-5 melanoma
ACHN renal = test system: ACHN renal

C=CC(=O)N1CCC(Oc2cc3c(Nc4ccc(Cl)c(Cl)c4F)ncnc3cc2OC)CC1
GI50 (SK-MEL-2 melanoma): 1.75 µM
TGI (SK-MEL-2 melanoma): 4.66 µM
GI50 (HL-60(TB) leukemia): 1.94 µM
TGI (HL-60(TB) leukemia): 3.49 µM
GI50 (COLO 205 colon): 4.34 µM
TGI (COLO 205 colon): 18.4 µM
GI50 (OVCAR-8 ovarian): 1.95 µM
TGI (OVCAR-8 ovarian): 12.2 µM
GI50 (HCT-15 colon): 2.38 µM
TGI (HCT-15 colon): 12.7 µM
GI50 (SNB-75 CNS): 0.291 µM
TGI (SNB-75 CNS): 2.13 µM
GI50 (UO-31 renal): 0.137 µM
TGI (UO-31 renal): 2.08 µM
GI50 (LOX IMVI melanoma): 1.62 µM
TGI (LOX IMVI melanoma): 3.47 µM
GI50 (SK-MEL-28 melanoma): 14 µM
TGI (SK-MEL-28 melanoma): 27.1 µM
GI50 (RPMI-8226 leukemia): 1.25 µM
TGI (RPMI-8226 leukemia): 3.26 µM
GI50 (HS 578T breast): 1.04 µM
TGI (HS 578T breast): 2.46 µM
GI50 (UACC-62 melanoma): 2.44 µM
TGI (UACC-62 melanoma): 11.6 µM
GI50 (T-47D breast): 0.0173 µM
TGI (T-47D breast): 7.89 µM
GI50 (NCI-H322M lung): < 0.01 µM
TGI (NCI-H322M lung): 4.15 µM
GI50 (CCRF-CEM leukemia): 1.26 µM
TGI (CCRF-CEM leukemia): 2.74 µM
GI50 (MDA-MB-435 melanoma): 2.64 µM
TGI (MDA-MB-435 melanoma): 10.9 µM
GI50 (OVCAR-3 ovarian): 0.244 µM
TGI (OVCAR-3 ovarian): 3.21 µM
GI50 (MOLT-4 leukemia): 0.43 µM
TGI (MOLT-4 leukemia): 1.88 µM
GI50 (NCI-H23 lung): 1.78 µM
TGI (NCI-H23 lung): 6.13 µM
GI50 (SK-OV-3 ovarian): < 0.01 µM
TGI (SK-OV-3 ovarian): 1.52 µM
GI50 (OVCAR-4 ovarian): 0.363 µM
TGI (OVCAR-4 ovarian): 5.42 µM
GI50 (NCI-H226 lung): 0.813 µM
TGI (NCI-H226 lung): 13.2 µM
GI50 (SF-268 CNS): 1.19 µM
TGI (SF-268 CNS): 5.58 µM
GI50 (K-562 leukemia): 1.27 µM
TGI (K-562 leukemia): 2.88 µM
GI50 (HOP-62 NSCLC): 2.27 µM
TGI (HOP-62 NSCLC): 8.53 µM
GI50 (NCI-H522 lung): < 0.01 µM
TGI (NCI-H522 lung): 0.0162 µM
GI50 (EKVX NSCLC): < 0.01 µM
TGI (EKVX NSCLC): 2.14 µM
GI50 (MALME-3M melanoma): 2.52 µM
TGI (MALME-3M melanoma): 11.2 µM
GI50 (OVCAR-5 ovarian): 1.23 µM
TGI (OVCAR-5 ovarian): 11.8 µM
GI50 (HCT-116 colon): 3.73 µM
TGI (HCT-116 colon): 15.2 µM
GI50 (SW-620 colon): 4.42 µM
TGI (SW-620 colon): 16.6 µM
GI50 (TK-10 renal): < 0.01 µM
TGI (TK-10 renal): 0.738 µM
GI50 (SF-295 CNS): 4.15 µM
TGI (SF-295 CNS): 14.9 µM
GI50 (SNB-19 CNS): 2.92 µM
TGI (SNB-19 CNS): 14.4 µM
GI50 (BT-549 breast): 1.11 µM
TGI (BT-549 breast): 3.99 µM
GI50 (A498 renal): 0.137 µM
TGI (A498 renal): 1.95 µM
GI50 (MCF7 breast): 0.69 µM
TGI (MCF7 breast): 14.1 µM
GI50 (U251 glioblastoma): 3.52 µM
TGI (U251 glioblastoma): 15.7 µM
GI50 (A549 NSCLC): 1.24 µM
TGI (A549 NSCLC): 12 µM
GI50 (HT29 colon): 2.42 µM
TGI (HT29 colon): 11.9 µM
GI50 ([…]-0 renal): 1.31 µM
TGI (786-0 renal): 4.74 µM
GI50 (MDA-MB-468 breast): < 0.01 µM
TGI (MDA-MB-468 breast): < 0.01 µM
GI50 (IGROV1 ovarian): < 0.01 µM
TGI (IGROV1 ovarian): 0.817 µM
GI50 (SN12C renal): 0.353 µM
TGI (SN12C renal): 6.44 µM
GI50 (NCI/ADR-RES ovarian): 1.1 µM
TGI (NCI/ADR-RES ovarian): 3.21 µM
GI50 (RXF 393 renal): 0.23 µM
TGI (RXF 393 renal): 1.31 µM
GI50 (NCI-H460 NSCLC): 2.87 µM
TGI (NCI-H460 NSCLC): 13.7 µM
GI50 (DU-145 prostate): 0.879 µM
TGI (DU-145 prostate): 14.6 µM
GI50 (SF-539 CNS): 1.36 µM
TGI (SF-539 CNS): 3.56 µM
GI50 (M14 melanoma): 3.01 µM
TGI (M14 melanoma): 15.4 µM
GI50 (UACC-257 melanoma): 3.33 µM
TGI (UACC-257 melanoma): 13.6 µM
GI50 (CAKI-1 renal): 0.198 µM
TGI (CAKI-1 renal): 1.7 µM
GI50 (KM12 colon): 3.07 µM
TGI (KM12 colon): 12.7 µM
GI50 (MDA-MB-231 breast): 2.1 µM
TGI (MDA-MB-231 breast): 14 µM
GI50 (HCC-2998 colon): 1.62 µM
TGI (HCC-2998 colon): 7.47 µM
GI50 (HOP-92 NSCLC): 1.39 µM
TGI (HOP-92 NSCLC): 4.02 µM
GI50 (PC-3 prostate): 1.96 µM
TGI (PC-3 prostate): 10.4 µM
GI50 (SK-MEL-5 melanoma): 2.98 µM
TGI (SK-MEL-5 melanoma): 13.3 µM
GI50 (ACHN renal): < 0.01 µM
TGI (ACHN renal): 11.2 µM
